# Measured values as given in patent US9695133B2, “Quinazolinone-based oncogenic-RAS-selective lethal compounds and their use” (THE TRUSTEES OF COLUMBIA UNIVERSITY IN THE CITY OF NEW YORK, priority 2012, dated 2017).
# Test system: HT-1080 cells
# Assay: Metabolite profiling (LC-MS/MS) upon erastin treatment
# Assay type: cell-based, human
# Details: 5 μg/mL erastin 5 h
# Procedure: 2 million HT-1080 cells were seeded in 10 cm culture dishes. […] 4 mL of cold 80% methanol was added to the cell monolayer to extract polar metabolites using a cell scraper. The cell lysate/methanol mixture was transferred to a 15 mL tube and centrifuged at 2,000×g at 4° C. for 10 minutes to pellet debris and proteins. The supernatant was transferred to a new tube and stored at −80° C. for liquid chromatography-mass spectrometry/mass spectrometry (LC-MS/MS) analysis. For lipid extract preparation, 3 mL of cold 100% isopropanol was added to the cell monolayer to scrape out cells. The resulting cell lysate/isopropanol mixture was transferred to a new 15 mL tube and centrifuged at 2,000×g at 4° C. for 10 minutes. The cleared supernatant was transferred to a new tube and stored at −20° C. for LC-MS/MS analysis.
# The metabolite extract was subjected to LC-MS/MS analysis to determine the quantity of each metabolite in each sample.
smiles,measurement,value
CCOc1ccccc1-n1c(C(C)N2CCN(C(=O)COc3ccc(Cl)cc3)CC2)nc2ccccc2c1=O (stereo not drawn) [erastin],2-aminodipate Erastin/DMSO,0.6644
same,2-aminodipate log2 (Erastin/DMSO),−0.59
same,2′-deoxyadenosine Erastin/DMSO,0.6549
same,2′-deoxyadenosine log2 (Erastin/DMSO),−0.6107
same,2′-deoxycytidine Erastin/DMSO,1.737
same,2′-deoxycytidine log2 (Erastin/DMSO),0.7968
same,4-hydroxybenzoate Erastin/DMSO,0.9815
same,4-hydroxybenzoate log2 (Erastin/DMSO),−0.02693
same,4-pyridoxate Erastin/DMSO,1
same,4-pyridoxate log2 (Erastin/DMSO),0.0001853
same,5-HIAA (first entry) Erastin/DMSO,0.7283
same,5-HIAA (first entry) log2 (Erastin/DMSO),−0.4574
same,5-HIAA (second entry) Erastin/DMSO,1.231
same,5-HIAA (second entry) log2 (Erastin/DMSO),0.2997
same,5-hydroxytryptophan Erastin/DMSO,0.8725
same,5-hydroxytryptophan log2 (Erastin/DMSO),−0.1967
same,ADMA Erastin/DMSO,0.8585
same,ADMA log2 (Erastin/DMSO),−0.2201
same,ADMA/SDMA Erastin/DMSO,0.8985
same,ADMA/SDMA log2 (Erastin/DMSO),−0.1543
same,ADP Erastin/DMSO,0.9616
same,ADP log2 (Erastin/DMSO),−0.05643
same,AMP Erastin/DMSO,1.071
same,AMP log2 (Erastin/DMSO),0.09933
same,Anthranilic acid Erastin/DMSO,1.242
same,Anthranilic acid log2 (Erastin/DMSO),0.3128
same,C14:0 CE Erastin/DMSO,0.7897
same,C14:0 CE log2 (Erastin/DMSO),−0.3407
same,C14:0 LPC Erastin/DMSO,3.625
same,C14:0 LPC log2 (Erastin/DMSO),1.858
same,C14:0 SM Erastin/DMSO,1.062
same,C14:0 SM log2 (Erastin/DMSO),0.08617
same,C16:0 CE Erastin/DMSO,0.9643
same,C16:0 CE log2 (Erastin/DMSO),−0.05248
same,C16:0 LPC Erastin/DMSO,3.818
same,C16:0 LPC log2 (Erastin/DMSO),1.933
same,C16:0 SM Erastin/DMSO,1.03
same,C16:0 SM log2 (Erastin/DMSO),0.04281
same,C16:1 CE Erastin/DMSO,0.9321
same,C16:1 CE log2 (Erastin/DMSO),−0.1015
same,C16:1 LPC Erastin/DMSO,5.386
same,C16:1 LPC log2 (Erastin/DMSO),2.429
same,C16:1 SM Erastin/DMSO,0.9808
same,C16:1 SM log2 (Erastin/DMSO),−0.02798
same,C18:0 CE Erastin/DMSO,1.01
same,C18:0 CE log2 (Erastin/DMSO),0.01367
same,C18:0 LPC Erastin/DMSO,3.335
same,C18:0 LPC log2 (Erastin/DMSO),1.738
same,C18:0 SM Erastin/DMSO,1.018
same,C18:0 SM log2 (Erastin/DMSO),0.02559
same,C18:1 CE Erastin/DMSO,0.9198
same,C18:1 CE log2 (Erastin/DMSO),−0.1206
same,C18:1 LPC Erastin/DMSO,3.744
same,C18:1 LPC log2 (Erastin/DMSO),1.904
same,C18:1 SM Erastin/DMSO,0.925
same,C18:1 SM log2 (Erastin/DMSO),−0.1125
same,C18:2 CE Erastin/DMSO,0.9483
same,C18:2 CE log2 (Erastin/DMSO),−0.07651
same,C18:3 CE Erastin/DMSO,0.9277
same,C18:3 CE log2 (Erastin/DMSO),−0.1083
same,C20:3 CE Erastin/DMSO,0.7864
same,C20:3 CE log2 (Erastin/DMSO),−0.3467
same,C20:4 CE Erastin/DMSO,0.9141
same,C20:4 CE log2 (Erastin/DMSO),−0.1297
same,C20:4 LPC Erastin/DMSO,8.518
same,C20:4 LPC log2 (Erastin/DMSO),3.091
same,C20:5 CE Erastin/DMSO,0.8407
same,C20:5 CE log2 (Erastin/DMSO),−0.2504
same,C22:0 SM Erastin/DMSO,0.96
same,C22:0 SM log2 (Erastin/DMSO),−0.0589
same,C22:1 SM Erastin/DMSO,0.8374
same,C22:1 SM log2 (Erastin/DMSO),−0.256
same,C22:6 CE Erastin/DMSO,0.7847
same,C22:6 CE log2 (Erastin/DMSO),−0.3498
same,C22:6 LPC Erastin/DMSO,8.456
same,C22:6 LPC log2 (Erastin/DMSO),3.08
same,C24:0 SM Erastin/DMSO,0.9621
same,C24:0 SM log2 (Erastin/DMSO),−0.05567
same,C24:1 SM Erastin/DMSO,0.8933
same,C24:1 SM log2 (Erastin/DMSO),−0.1627
same,C30:0 PC Erastin/DMSO,0.8954
same,C30:0 PC log2 (Erastin/DMSO),−0.1594
same,C30:1 PC Erastin/DMSO,1.014
same,C30:1 PC log2 (Erastin/DMSO),0.01988
same,C30:2 PC Erastin/DMSO,0.9467
same,C30:2 PC log2 (Erastin/DMSO),−0.07901
same,C32:0 PC Erastin/DMSO,0.7948
same,C32:0 PC log2 (Erastin/DMSO),−0.3314
same,C32:0 PE Erastin/DMSO,0.9821
same,C32:0 PE log2 (Erastin/DMSO),−0.0261
same,C32:1 DAG Erastin/DMSO,1.055
same,C32:1 DAG log2 (Erastin/DMSO),0.07658
same,C32:1 PC Erastin/DMSO,0.9998
same,C32:1 PC log2 (Erastin/DMSO),−0.0003379
same,C32:1 PE Erastin/DMSO,1.024
same,C32:1 PE log2 (Erastin/DMSO),0.03411
same,C32:1 PI Erastin/DMSO,1.261
same,C32:1 PI log2 (Erastin/DMSO),0.3346
same,C32:2 PC Erastin/DMSO,1.218
same,C32:2 PC log2 (Erastin/DMSO),0.2847
same,C32:2 PE Erastin/DMSO,1.018
same,C32:2 PE log2 (Erastin/DMSO),0.02554
same,C34:0 PC Erastin/DMSO,0.7975
same,C34:0 PC log2 (Erastin/DMSO),−0.3264
same,C34:0 PE Erastin/DMSO,0.9533
same,C34:0 PE log2 (Erastin/DMSO),−0.06907
same,C34:1 DAG Erastin/DMSO,0.8823
same,C34:1 DAG log2 (Erastin/DMSO),−0.1807
same,C34:1 PC Erastin/DMSO,0.8993
same,C34:1 PC log2 (Erastin/DMSO),−0.1531
same,C34:1 PE Erastin/DMSO,1.04
same,C34:1 PE log2 (Erastin/DMSO),0.05679
same,C34:1 PI Erastin/DMSO,1.173
same,C34:1 PI log2 (Erastin/DMSO),0.2306
same,C34:2 DAG Erastin/DMSO,1.089
same,C34:2 DAG log2 (Erastin/DMSO),0.1227
same,C34:2 PC Erastin/DMSO,1.049
same,C34:2 PC log2 (Erastin/DMSO),0.06833
same,C34:2 PE Erastin/DMSO,0.982
same,C34:2 PE log2 (Erastin/DMSO),−0.02619
same,C34:2 PI Erastin/DMSO,1.286
same,C34:2 PI log2 (Erastin/DMSO),0.3633
same,C34:3 PC Erastin/DMSO,1.134
same,C34:3 PC log2 (Erastin/DMSO),0.1814
same,C34:4 PC Erastin/DMSO,1.086
same,C34:4 PC log2 (Erastin/DMSO),0.119
same,C36:0 PC Erastin/DMSO,0.6501
same,C36:0 PC log2 (Erastin/DMSO),−0.6212
same,C36:0 PE Erastin/DMSO,0.9538
same,C36:0 PE log2 (Erastin/DMSO),−0.06821
same,C36:0 PI Erastin/DMSO,1.006
same,C36:0 PI log2 (Erastin/DMSO),0.009131
